Starred links: 1 amine or outer side, 2 acyl side, 3 side chain; linkers in the order of their positions; H or OH if unused. Positions of bridges follow the written chain, without caps; N, C: chain ends. Residues, ends and D or L forms follow the SMILES beside them. Groups on a side chain read outwards from the residue. *: point of attachment. X3 = C/C(=N/O)C(C)(C)NCCC(CCNC(C)(C)/C(C)=N\O)CCN*; Glutaryl = O=C(CCCC(=O)[*:2])[*:1]; X2 = NC(=O)COCC(=O)NCCOCCOCCOCCN*
How the values were obtained:
[1] = system: subcutaneous U87 tumour; assay: co-registered coronal micro-PET/CT imaging of mouse bearing a subcutaneous U87 tumour; type: in vivo, C57/BI6 mouse; details: same mouse imaged with ^18F-FDG (3A) and ^18F-fluciclatide (3B); comparison of the two images
Excerpt: FIGS. 3A and 3B show co-registered coronal micro-PET/CT images of the same C57/BI6 mouse bearing a subcutaneous U87 tumour on its left side. The emission image in 3A is that of ^18F-FDG and that in 3B is of ^18F-fluciclatide.

[2] = system: alphavbeta3/5 integrins; assay: co-registered contrast-enhanced CT and SPECT emission imaging of a necrotic lymph node metastasis for a primary breast cancer; type: in vivo
Excerpt: The emission image was obtained for ^99mTc-maraciclatide. The necrotic centre in the CT image which corresponds to no uptake of the agent in the SPECT image.

SMILES | tumour uptake volume [1] | uptake of the agent in the necrotic centre ([2]; SPECT image, necrotic centre of lymph node metastasis seen in CT image) | uptake in the sternum ([2]; concluded to be due to bone marrow uptake) | region surrounding the necrotic centre due to angiogenesis and other expressions of alphavbeta3/5 integrins ([2]; emission image co-registered with CT)
OC[C@H]1OC(O)[C@H](F)[C@@H](O)[C@@H]1O (stereo partly shown) [^18F-FDG, fluorodeoxyglucose, reference compound] | difference in tumour uptake volumes | – | – | –
C/C(=N/O)C(C)(C)NCCC(CCNC(=O)CCCC(=O)NCCCC[C@@H]1NC(=O)CSC[C@@H](C(=O)NCCOCCOCCOCCNC(=O)COCC(N)=O)NC(=O)[C@H](Cc2ccccc2)NC(=O)[C@@H]2CSSC[C@H](NC1=O)C(=O)N[C@@H](CCCNC(=N)N)C(=O)NCC(=O)N[C@@H](CC(=O)O)C(=O)N2)CCNC(C)(C)/C(C)=N\O (stereo partly shown) [^99mTc-maraciclatide, metal not drawn] ({CH2CO}-K([Glutaryl-X3])CRGDCFC-X2; disulfide 2-6; thioether N-8) | – | no uptake | uptake in the sternum | highlighted
